For series [1], the target named is MAP/microtubule affinity-regulating kinase 3 (Homo sapiens) (UniProt P27448). As to conditions: Compound concentration 1000.0 nM; call rule not given here.
For series [2], the target named is D(3) dopamine receptor (Homo sapiens) (UniProt P35462). As to conditions: Compound concentration 10.0 uM.
In series [3] the target is Alpha-1B adrenergic receptor (Homo sapiens) (UniProt P35368). As to conditions: Compound concentration 10.0 uM.
For series [4], the target named is Sodium/hydrogen exchanger 1 (Homo sapiens, UniProt P19634). The series can be described thus: pHi change assay with SLC9A1.
For series [5], the target named is Endothelin-1 receptor (Homo sapiens) (UniProt P25101). In words: ETA/HU Eurofins-Panlabs selectivity data (BI). As to conditions: Compound concentration 10.0 uM.
Series [6] has as its target 5-hydroxytryptamine receptor 1E (Homo sapiens) (UniProt P28566). As to conditions: Compound concentration 10.0 uM.
The target of series [7] is Pyroglutamylated RF-amide peptide receptor (Homo sapiens) (UniProt Q96P65). The series can be described thus: GPR103 Eurofins-Panlabs selectivity data (BI). As to conditions: Compound concentration 10.0 uM.
Series [8] addresses T1, Muscarinic acetylcholine receptor M1 (Homo sapiens) (UniProt P11229).
T1 sequence (whole entry): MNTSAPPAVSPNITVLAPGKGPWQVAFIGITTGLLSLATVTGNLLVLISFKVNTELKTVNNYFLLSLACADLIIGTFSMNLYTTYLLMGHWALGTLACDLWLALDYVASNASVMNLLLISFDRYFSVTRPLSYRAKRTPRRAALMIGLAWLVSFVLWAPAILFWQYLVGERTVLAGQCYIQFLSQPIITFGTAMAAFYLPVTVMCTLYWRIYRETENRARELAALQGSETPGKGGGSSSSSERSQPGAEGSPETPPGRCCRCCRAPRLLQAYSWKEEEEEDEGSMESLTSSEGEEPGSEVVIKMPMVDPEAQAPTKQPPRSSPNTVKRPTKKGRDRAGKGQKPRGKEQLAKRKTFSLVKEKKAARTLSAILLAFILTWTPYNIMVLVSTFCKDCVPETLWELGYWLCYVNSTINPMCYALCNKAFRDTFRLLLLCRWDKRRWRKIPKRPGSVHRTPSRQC
In words: M1/HU Eurofins-Panlabs selectivity data (BI). To be noted: Compound concentration 10.0 uM.

For series [9], the target named is Sodium channel alpha subunit (site 2) (Homo sapiens, UniProt P35498+P35499+Q01118+Q14524+Q15858+Q99250+Q9NY46+Q9UI33+Q9UQD0+Q9Y5Y9). The series can be described thus: NA+/SITE2AG Eurofins-Panlabs selectivity data (BI). It counts as protein assay, Cavia porcellus. The arrangement: mode of action antagonist. As to conditions: guinea pig; compound concentration 30 uM; read-out: % Ctrl.

Series [10] deals with Adenosine receptor A3 (Homo sapiens) (UniProt P0DMS8). In words: A3/H Eurofins-Panlabs selectivity data (BI). To be noted: Compound concentration 10.0 uM.
The target of series [11] is Protein kinase C alpha type (Mus musculus) (UniProt P20444). The series can be described thus: PHORBOLE/M Eurofins-Panlabs selectivity data (BI). To be noted: Compound concentration 10.0 uM.
Series [12] deals with Sigma non-opioid intracellular receptor 1 (Homo sapiens) (UniProt Q99720). In words: SIGMA1/HU Eurofins-Panlabs selectivity data (BI). To be noted: Compound concentration 10.0 uM.
For series [13], the target named is Endothelin receptor type B (Homo sapiens) (UniProt P24530). The series can be described thus: ETB/HUM Eurofins-Panlabs selectivity data (BI). To be noted: Compound concentration 10.0 uM.
In series [14] the target is P2X purinoceptor (Oryctolagus cuniculus) (UniProt G1U3D6). In words: P2X/RB Eurofins-Panlabs selectivity data (BI). As to conditions: Compound concentration 10.0 uM.
For series [15], the target named is B2 bradykinin receptor (Homo sapiens) (UniProt P30411). In words: B2/HU Eurofins-Panlabs selectivity data (BI). As to conditions: Compound concentration 10.0 uM.
Series [16] addresses T2, Alpha-1A adrenergic receptor (Homo sapiens) (UniProt P35348).
T2 sequence (whole entry): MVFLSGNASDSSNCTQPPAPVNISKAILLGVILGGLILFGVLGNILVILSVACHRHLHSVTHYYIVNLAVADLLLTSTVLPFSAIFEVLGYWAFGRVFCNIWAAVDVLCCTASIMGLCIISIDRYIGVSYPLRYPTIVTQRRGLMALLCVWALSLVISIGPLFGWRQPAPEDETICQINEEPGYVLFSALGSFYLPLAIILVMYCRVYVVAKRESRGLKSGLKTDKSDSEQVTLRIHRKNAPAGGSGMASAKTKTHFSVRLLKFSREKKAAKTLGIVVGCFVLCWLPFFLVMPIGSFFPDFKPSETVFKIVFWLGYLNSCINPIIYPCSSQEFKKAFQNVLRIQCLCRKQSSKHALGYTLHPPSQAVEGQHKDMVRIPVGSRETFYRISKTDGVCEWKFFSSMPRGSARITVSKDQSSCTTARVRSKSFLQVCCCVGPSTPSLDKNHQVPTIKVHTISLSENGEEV
In words: ALPHA1A/R Eurofins-Panlabs selectivity data (BI). To be noted: Rattus norvegicus; Compound concentration 10.0 uM.

Series [17] addresses Histamine H3 receptor (Homo sapiens) (UniProt Q9Y5N1). In words: H3/H Eurofins-Panlabs selectivity data (BI). To be noted: Compound concentration 10.0 uM.
Series [18] addresses Neuropeptide Y receptor type 2 (Homo sapiens) (UniProt P49146). In words: Y2/HU Eurofins-Panlabs selectivity data (BI). As to conditions: Compound concentration 10.0 uM.
In series [19] the target is Glutamate receptor ionotropic, NMDA 2A (Rattus norvegicus) (UniProt Q00959). To be noted: Compound concentration 10.0 uM.
Series [20] deals with Gamma-aminobutyric acid type B receptor subunit 1 (Homo sapiens) (UniProt Q9UBS5). In words: GABA_B1A Eurofins-Panlabs selectivity data (BI). To be noted: Compound concentration 10.0 uM.
For series [21], the target named is Estrogen receptor (Homo sapiens) (UniProt P03372). In words: ERALPHA/H Eurofins-Panlabs selectivity data (BI). To be noted: Compound concentration 10.0 uM.
The target in series [22] is Sigma intracellular receptor 2 (Homo sapiens) (UniProt Q5BJF2). In words: SIGMA2/R Eurofins-Panlabs selectivity data (BI). As to conditions: Rattus norvegicus; Compound concentration 10.0 uM.
Series [23] deals with D(3) dopamine receptor (Homo sapiens) (UniProt P35462). The series can be described thus: D3/HU Eurofins-Panlabs selectivity data (BI). To be noted: Compound concentration 10.0 uM.
The target in series [24] is Acetylcholine receptor subunit alpha (Homo sapiens) (UniProt P02708). In words: NACH/H Eurofins-Panlabs selectivity data (BI). To be noted: Compound concentration 10.0 uM.
Series [25] has as its target Gamma-aminobutyric acid receptor subunit alpha-1 (Rattus norvegicus) (UniProt P62813). In words: GABAACENTR Eurofins-Panlabs selectivity data (BI). To be noted: Compound concentration 10.0 uM.
In series [26] the target is Beta-2 adrenergic receptor (Homo sapiens) (UniProt P07550). To be noted: Compound concentration 10.0 uM.
Series [27] deals with Sodium-dependent serotonin transporter (Homo sapiens) (UniProt P31645). The series can be described thus: 5HTTRANS/HU Eurofins-Panlabs selectivity data (BI). As to conditions: Compound concentration 10.0 uM.
Series [28] concerns the target 5-hydroxytryptamine receptor 1A (Homo sapiens) (UniProt P08908). As to conditions: Compound concentration 10.0 uM.
For series [29], the target named is Adenosine receptor A1 (Homo sapiens) (UniProt P30542). In words: A1/HU Eurofins-Panlabs selectivity data (BI). As to conditions: Compound concentration 10.0 uM.
For series [30], the target named is 5-hydroxytryptamine receptor 1A (Homo sapiens) (UniProt P08908). In words: 5HT1A/HU Eurofins-Panlabs selectivity data (BI). As to conditions: Compound concentration 10.0 uM.
For series [31], the target named is B1 bradykinin receptor (Homo sapiens) (UniProt P46663). In words: B1/H Eurofins-Panlabs selectivity data (BI). As to conditions: Compound concentration 10.0 uM.
In series [32] the target is Glutamate NMDA receptor (Rattus norvegicus) (UniProt P35439+Q00959+Q00960+Q00961+Q62645+Q8VHN2+Q9R1M7). The series can be described thus: NMDAAGSI/RA Eurofins-Panlabs selectivity data (BI). To be noted: filed as agonist, Compound concentration 10.0 uM. It counts as protein-complex assay.

Where only a bound is given, the exact number is not on record here.

Sequence of 5-hydroxytryptamine receptor 1A (Homo sapiens) (P08908 whole entry): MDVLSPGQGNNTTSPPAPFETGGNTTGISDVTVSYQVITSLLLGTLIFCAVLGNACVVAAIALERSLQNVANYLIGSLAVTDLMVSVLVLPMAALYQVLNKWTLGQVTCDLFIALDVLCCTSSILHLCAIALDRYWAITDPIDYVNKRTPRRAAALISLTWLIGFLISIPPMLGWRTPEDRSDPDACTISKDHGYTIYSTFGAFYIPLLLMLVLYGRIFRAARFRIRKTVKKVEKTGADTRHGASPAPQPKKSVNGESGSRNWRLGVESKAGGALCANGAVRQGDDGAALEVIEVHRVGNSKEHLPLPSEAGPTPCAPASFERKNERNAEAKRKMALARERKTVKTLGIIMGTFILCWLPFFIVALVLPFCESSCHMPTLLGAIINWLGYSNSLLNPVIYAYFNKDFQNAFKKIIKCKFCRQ
Sequence of D(3) dopamine receptor (Homo sapiens) (P35462 whole entry): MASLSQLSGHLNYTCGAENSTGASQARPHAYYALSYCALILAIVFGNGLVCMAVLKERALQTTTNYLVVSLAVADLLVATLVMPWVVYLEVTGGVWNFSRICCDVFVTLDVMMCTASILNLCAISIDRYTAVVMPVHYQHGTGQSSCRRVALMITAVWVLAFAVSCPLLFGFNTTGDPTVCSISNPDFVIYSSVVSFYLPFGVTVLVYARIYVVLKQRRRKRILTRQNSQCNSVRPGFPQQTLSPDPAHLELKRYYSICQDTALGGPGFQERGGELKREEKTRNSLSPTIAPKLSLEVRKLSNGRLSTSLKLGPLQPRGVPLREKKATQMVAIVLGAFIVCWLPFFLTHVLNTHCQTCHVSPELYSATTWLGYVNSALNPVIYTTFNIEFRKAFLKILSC
Sequence of Glutamate receptor ionotropic, NMDA 2A (Rattus norvegicus) (Q00959 23-1464 limits assumed): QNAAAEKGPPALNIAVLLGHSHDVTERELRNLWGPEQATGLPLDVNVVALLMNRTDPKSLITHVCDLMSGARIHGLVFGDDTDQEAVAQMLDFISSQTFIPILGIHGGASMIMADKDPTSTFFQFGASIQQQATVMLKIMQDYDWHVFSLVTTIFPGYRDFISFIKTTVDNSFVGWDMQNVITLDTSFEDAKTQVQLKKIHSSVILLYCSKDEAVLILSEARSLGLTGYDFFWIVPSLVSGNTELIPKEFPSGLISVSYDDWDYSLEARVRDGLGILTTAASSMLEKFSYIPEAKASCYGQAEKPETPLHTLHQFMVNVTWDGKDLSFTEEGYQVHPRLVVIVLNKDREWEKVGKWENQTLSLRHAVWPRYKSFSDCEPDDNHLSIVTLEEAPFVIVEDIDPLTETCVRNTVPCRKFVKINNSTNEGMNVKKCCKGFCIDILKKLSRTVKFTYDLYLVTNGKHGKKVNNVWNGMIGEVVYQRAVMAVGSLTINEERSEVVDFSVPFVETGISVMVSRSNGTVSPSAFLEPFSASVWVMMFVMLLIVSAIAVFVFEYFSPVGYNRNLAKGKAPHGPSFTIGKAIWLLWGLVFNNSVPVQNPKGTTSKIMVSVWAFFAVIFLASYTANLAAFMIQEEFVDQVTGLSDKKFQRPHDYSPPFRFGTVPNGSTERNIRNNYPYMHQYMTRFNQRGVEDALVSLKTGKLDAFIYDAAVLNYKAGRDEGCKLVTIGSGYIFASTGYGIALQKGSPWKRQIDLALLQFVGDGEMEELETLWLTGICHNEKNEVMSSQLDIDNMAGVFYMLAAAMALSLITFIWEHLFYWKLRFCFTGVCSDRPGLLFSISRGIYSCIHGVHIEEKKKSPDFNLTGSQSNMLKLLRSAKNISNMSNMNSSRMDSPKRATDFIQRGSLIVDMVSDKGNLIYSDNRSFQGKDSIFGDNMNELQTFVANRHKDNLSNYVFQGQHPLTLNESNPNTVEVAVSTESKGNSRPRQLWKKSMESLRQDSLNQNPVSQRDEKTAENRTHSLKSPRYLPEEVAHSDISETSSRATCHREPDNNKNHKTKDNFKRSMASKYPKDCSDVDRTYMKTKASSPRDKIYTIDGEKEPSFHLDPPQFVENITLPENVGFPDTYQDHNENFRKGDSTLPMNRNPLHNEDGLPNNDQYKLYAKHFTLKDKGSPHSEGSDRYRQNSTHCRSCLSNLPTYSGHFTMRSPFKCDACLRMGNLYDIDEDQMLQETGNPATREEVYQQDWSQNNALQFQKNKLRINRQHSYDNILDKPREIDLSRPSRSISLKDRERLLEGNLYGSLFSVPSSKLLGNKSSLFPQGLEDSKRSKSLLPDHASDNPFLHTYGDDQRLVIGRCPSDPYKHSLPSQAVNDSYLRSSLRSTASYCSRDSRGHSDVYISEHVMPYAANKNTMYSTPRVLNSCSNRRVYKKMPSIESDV
Sequence of Adenosine receptor A1 (Homo sapiens) (P30542 whole entry): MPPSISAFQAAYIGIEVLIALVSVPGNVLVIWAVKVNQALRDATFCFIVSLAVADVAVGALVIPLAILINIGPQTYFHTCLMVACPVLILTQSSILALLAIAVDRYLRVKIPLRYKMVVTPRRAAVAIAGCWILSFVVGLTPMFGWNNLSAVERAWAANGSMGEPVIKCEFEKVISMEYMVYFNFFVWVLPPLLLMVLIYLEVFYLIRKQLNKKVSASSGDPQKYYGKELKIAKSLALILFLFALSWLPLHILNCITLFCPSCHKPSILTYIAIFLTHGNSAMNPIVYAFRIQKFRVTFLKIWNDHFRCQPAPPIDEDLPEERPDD
Sequence of Acetylcholine receptor subunit alpha (Homo sapiens) (P02708 whole entry): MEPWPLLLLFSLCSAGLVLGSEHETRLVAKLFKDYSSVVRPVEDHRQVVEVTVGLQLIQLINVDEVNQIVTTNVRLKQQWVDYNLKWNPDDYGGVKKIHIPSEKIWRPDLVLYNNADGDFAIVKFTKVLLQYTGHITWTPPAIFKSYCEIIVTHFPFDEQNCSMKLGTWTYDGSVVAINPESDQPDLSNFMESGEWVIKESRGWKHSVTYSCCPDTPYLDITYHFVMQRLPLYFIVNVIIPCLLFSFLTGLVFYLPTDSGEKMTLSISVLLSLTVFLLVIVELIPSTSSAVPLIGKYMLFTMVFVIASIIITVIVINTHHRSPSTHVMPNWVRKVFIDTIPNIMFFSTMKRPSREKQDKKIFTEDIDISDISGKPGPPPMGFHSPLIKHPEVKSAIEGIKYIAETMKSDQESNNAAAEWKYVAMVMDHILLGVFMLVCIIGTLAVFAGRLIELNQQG
Sequence of Sodium-dependent serotonin transporter (Homo sapiens) (P31645 whole entry, looked up): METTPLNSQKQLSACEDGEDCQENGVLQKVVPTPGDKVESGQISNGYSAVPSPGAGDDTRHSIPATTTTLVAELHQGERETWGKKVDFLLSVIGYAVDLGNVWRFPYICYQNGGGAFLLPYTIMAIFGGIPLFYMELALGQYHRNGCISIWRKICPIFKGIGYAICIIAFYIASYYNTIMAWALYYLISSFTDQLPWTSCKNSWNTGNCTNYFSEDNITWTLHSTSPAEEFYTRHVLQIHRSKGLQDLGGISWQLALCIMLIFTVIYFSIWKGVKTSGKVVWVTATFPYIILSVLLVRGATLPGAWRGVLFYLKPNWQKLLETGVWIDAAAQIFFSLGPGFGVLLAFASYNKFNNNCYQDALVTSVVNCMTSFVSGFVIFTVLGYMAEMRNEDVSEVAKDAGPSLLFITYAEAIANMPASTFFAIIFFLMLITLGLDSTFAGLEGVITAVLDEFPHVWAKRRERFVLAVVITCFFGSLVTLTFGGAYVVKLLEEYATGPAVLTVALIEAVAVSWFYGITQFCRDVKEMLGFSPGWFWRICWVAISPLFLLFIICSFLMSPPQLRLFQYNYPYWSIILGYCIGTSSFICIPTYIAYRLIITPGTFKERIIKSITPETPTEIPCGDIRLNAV
Sequence of Sigma non-opioid intracellular receptor 1 (Homo sapiens) (Q99720 whole entry): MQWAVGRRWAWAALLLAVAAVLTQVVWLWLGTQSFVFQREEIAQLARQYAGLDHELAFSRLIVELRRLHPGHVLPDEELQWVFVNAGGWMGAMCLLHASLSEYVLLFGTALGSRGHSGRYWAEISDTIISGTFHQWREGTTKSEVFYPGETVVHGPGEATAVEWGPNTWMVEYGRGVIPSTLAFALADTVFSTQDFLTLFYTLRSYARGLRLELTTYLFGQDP
Sequence of Gamma-aminobutyric acid type B receptor subunit 1 (Homo sapiens) (Q9UBS5 whole entry): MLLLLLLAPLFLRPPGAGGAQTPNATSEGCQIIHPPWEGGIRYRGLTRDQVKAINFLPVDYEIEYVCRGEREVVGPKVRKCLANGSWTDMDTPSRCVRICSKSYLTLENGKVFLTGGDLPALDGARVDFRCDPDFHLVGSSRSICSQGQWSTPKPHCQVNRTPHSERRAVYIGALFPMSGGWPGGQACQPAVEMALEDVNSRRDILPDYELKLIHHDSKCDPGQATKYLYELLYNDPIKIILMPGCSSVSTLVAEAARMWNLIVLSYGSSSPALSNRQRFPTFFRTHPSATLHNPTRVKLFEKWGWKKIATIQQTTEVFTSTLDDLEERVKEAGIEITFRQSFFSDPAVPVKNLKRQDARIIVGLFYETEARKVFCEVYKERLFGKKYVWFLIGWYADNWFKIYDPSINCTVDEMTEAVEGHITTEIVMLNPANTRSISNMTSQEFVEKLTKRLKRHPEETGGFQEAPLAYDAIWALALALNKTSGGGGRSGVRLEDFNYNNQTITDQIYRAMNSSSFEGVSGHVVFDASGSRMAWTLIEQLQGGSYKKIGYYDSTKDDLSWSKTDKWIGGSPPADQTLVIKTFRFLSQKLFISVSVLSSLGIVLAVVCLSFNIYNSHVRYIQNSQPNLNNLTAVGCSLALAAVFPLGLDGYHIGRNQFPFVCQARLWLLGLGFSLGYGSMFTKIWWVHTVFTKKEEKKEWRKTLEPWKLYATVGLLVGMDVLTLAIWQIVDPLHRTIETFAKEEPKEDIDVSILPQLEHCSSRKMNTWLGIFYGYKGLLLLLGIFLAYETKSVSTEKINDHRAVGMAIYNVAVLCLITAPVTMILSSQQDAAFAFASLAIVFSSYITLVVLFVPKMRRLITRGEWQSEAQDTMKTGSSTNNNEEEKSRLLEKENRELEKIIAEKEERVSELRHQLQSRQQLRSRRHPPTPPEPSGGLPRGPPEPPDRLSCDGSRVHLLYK

By inhibition is commonly meant the drop in the measured response relative to a control, in per cent. By IC50 is commonly meant the concentration that gives 50% inhibition. Lower therefore signals inhibition by little substance. Consider `CC(=O)N1CCC(c2ccc(C(=O)NC3=NCCN3)cc2C(F)(F)F)CC1` [BI 0054], for which the residual activity in [1] was 100%. Besides, the results for the inhibition in series [2] and in series [3] were -7.75% and -0.596%, respectively. In addition, the IC50 in series [4] is reported as > 10 µM (not active).
Consider `CC(=O)N1CCC(c2ccc(C(=O)NC(=N)N)cc2C(F)(F)F)CC1` [BI 9627], for which the residual activity in series [5] was 103%; in series [7], 92%; in series [8], 61%; in [10] it was 105%; in series [11] it was 101%; in series [12], 114%. The residual activity in series [13] is 114%; in [14], 98%; in series [15], 105%; in [16] it was 86%; in series [17], 109%; in series [18] it was 103%. For the same compound, the residual activity was 96% in series [19]; 103% in series [20]; 106% in series [21]; 90% in [22]; 117% in [23]; 102% in [24]. Moreover, the residual activity was 92% in series [25]; 89% in series [27]; 58% in [29]; 82% in series [30]; 97% in series [31]; 90% in series [32]. Besides, the inhibition in series [6] was -9.59%; in [26], -9.75%; in series [28], -5.21%. In [9], the activity at 30 µM is on record as 100% (not active).

These data come from ChEMBL document CHEMBL4507279, “Data for DCP probe BI-9627” (2021).
